Experiments:
U251 (CNS cancer) = experiment: NCI in vitro anticancer assay, growth inhibition, U251; format: cell-based; details: Homo sapiens, U-251, read-out: GI50 (concentration causing 50% cell growth inhibition)
Source text: (§1) The tested human tumor cell lines are as follows: (1) CCRF-CEM, K-562, MOLT-4 and SR of leukemia; (2) A549/ATCC, EKVX, HOP-62, HOP-92, NCI-H226, NCI-H23, NCI-H322M, NCI-H460a and NCI-H522 of non-small cell lung cancer; (3) COLO 205, HCC-2998, HCT-116, HCT-15, HT29, KM12 and SW-620 of colon cancer; (4) SF-268, SF-295, SF-539, SNB-19, SNB-75 and U251 of CNS cancer; (5) LOX IMVI, MALME-3M, M14, SK-MEL-2, SK-MEL-28, SK-MEL-5, UACC-257 and UACC-62 of melanoma; (6) IGROV1, OVCAR-3, OVCAR-4, OVCAR-5, OVCAR-8 and SK-OV-3 of ovarian cancer; (7) 786-0, A498, ACHN, CAKI-1, RXF 393, SN12C, TK-10 and UO-31 of renal cancer; (8) […] and DU-145 of prostate cancer; and (9) MCF7, MCF7/ADR-RES, MDA-MB-231/ATCC, HS 578T, MDA-MB-435, MDA-N, BT-549 and T-47D of breast cancer.
(§2) For each compound, the dose-response curves for each tested tumor cell line were measured with five different dose concentrations, and the concentration causing 50% cell growth inhibition (GI50) compared with the control was calculated.

[1] = system: NCI-H522 (non-small cell lung cancer); experiment: NCI in vitro anticancer assay, growth inhibition, NCI-H522; format: cell-based; details: Homo sapiens, read-out: GI50 (concentration causing 50% cell growth inhibition)
Source text: as §1, §2

COLO 205 (colon cancer) = experiment: NCI in vitro anticancer assay, growth inhibition, COLO 205; format: cell-based; details: Homo sapiens, read-out: GI50 (concentration causing 50% cell growth inhibition)
Source text: as §1, §2

[2] = system: 60 human tumor cell lines; experiment: NCI in vitro anticancer assay, mean over 60 cell lines; format: cell-based; details: mean values over 60 cell lines tested
Source text: as §1, §2
Table 1 summarizes the respective GI50 values and mean GI50 values for the tested compounds in relation to all the 60 tumor cell lines.

RXF 393 (renal cancer) = experiment: NCI in vitro anticancer assay, growth inhibition, RXF 393; format: cell-based; details: Homo sapiens, read-out: GI50 (concentration causing 50% cell growth inhibition)
Source text: as §1, §2

HT29 (colon cancer) = experiment: NCI in vitro anticancer assay, growth inhibition, HT29; format: cell-based; details: Homo sapiens, HT-29, read-out: GI50 (concentration causing 50% cell growth inhibition)
Source text: as §1, §2

[3] = In vivo hollow fiber assay (NCI); details: intraperitoneal (IP) and subcutaneous (SC) samples, total score of 20 or more considered active
Method: The compounds obtained from the above Synthesis Ex. 1 and Synthesis Ex. 2 were further examined in an in vivo hollow fiber assay conducted by the National Cancer Institute (NCI) in the United States, in which an intraperitoneal (IP) sample and a subcutaneous (SC) sample were tested. In this assay, if a tested compound is observed to have a total score of IP score and SC score […]20, it will be considered to be active and to have the potential as an anti-tumor/anti-cancer drug candidate. According to the confidential report of the Developmental Therapeutics Program issued by NCI on Apr.

SF-268 (CNS cancer) = experiment: NCI in vitro anticancer assay, growth inhibition, SF-268; format: cell-based; details: Homo sapiens, read-out: GI50 (concentration causing 50% cell growth inhibition)
Source text: as §1, §2

[4] = system: EKVX (non-small cell lung cancer); experiment: NCI in vitro anticancer assay, growth inhibition, EKVX; format: cell-based; details: Homo sapiens, read-out: GI50 (concentration causing 50% cell growth inhibition)
Source text: as §1, §2

SN12C (renal cancer) = experiment: NCI in vitro anticancer assay, growth inhibition, SN12C; format: cell-based; details: Homo sapiens, read-out: GI50 (concentration causing 50% cell growth inhibition)
Source text: as §1, §2

SMILES | GI50 (U251 (CNS cancer)) | GI50 [1] | GI50 (COLO 205 (colon cancer)) | GI50 ([2]; Homo sapiens, 60 cell) | GI50 [2] | GI50 (RXF 393 (renal cancer)) | GI50 (HT29 (colon cancer)) | total score of IP score and SC score [3] | GI50 (SF-268 (CNS cancer)) | GI50 [4] | GI50 (SN12C (renal cancer))
COc1cc2c(cc1OC(=O)c1cc3ccccc3[nH]1)N=C[C@@H]1CCCN1C2=O [Synthesis Ex. 1] | 302 nM | 198 nM | 196 nM | ≤ 380 nM | 380 nM | 155 nM | 185 nM | 22 | 669 nM | 674 nM | 210 nM
COc1cc2c(cc1OCCCNC(=O)c1cc3ccccc3[nH]1)N=C[C@@H]1CCCN1C2=O [Synthesis Ex. 2] | 39.4 nM | 14.1 nM | 118 nM |  |  | 25 nM | 274 nM | 30 | 27 nM | 604 nM | 410 nM

From patent US6939869B2, “Pyrrolo[2,1-c][1,4] benzodiazepine-indole derivatives, their preparation process, and uses of the same” (Kaohsiung Medical University, priority 2002, dated 2005)
